Measurements published in US10538512B2, “Aminoacylindazole immunomodulators for treatment of autoimmune diseases” (The Rockefeller University, priority 2016, dated 2020).

Tests used:
Human alpha-thrombin = target: T1, Human alpha-thrombin (Homo sapiens, UniProt P00734); experiment: Thrombin counterscreen for selectivity, fluorogenic substrate assay; type: biochemical; conditions: Human alpha-thrombin 12.5 nM, Boc-Val-Pro-Arg-AMC 20 μM, 10 min preincubation
T1 construct: Human alpha-thrombin (Enzyme Research Labs); purchased Enzyme Research Labs
How it was run: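 Compounds, about 1–100 μM, preincubated 10 min at room temperature with enzyme, then Boc-Val-Pro-Arg-AMC added at 20 μM final.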

Human FXIIa = target: T2, Human FXIIa (Homo sapiens, UniProt P00748); experiment: Factor XIIa (FXIIa) inhibitory activity, chromogenic substrate assay; type: biochemical; conditions: Human FXIIa 12.5 nM, Pefachrome XIIa 400 μM, 10 min preincubation
T2 construct: active coagulation factor XII (FXIIa); purchased Enzyme Research Labs
T2 sequence (P00748 373-615 limits assumed): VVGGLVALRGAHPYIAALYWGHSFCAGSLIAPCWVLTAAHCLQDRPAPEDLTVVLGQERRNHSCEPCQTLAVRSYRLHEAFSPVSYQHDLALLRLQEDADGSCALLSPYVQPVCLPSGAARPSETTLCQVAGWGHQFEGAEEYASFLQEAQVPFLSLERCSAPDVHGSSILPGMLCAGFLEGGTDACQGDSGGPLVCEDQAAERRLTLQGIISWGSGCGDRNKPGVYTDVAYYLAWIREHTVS
T2 sequence (P00748 20-372 partner limits assumed): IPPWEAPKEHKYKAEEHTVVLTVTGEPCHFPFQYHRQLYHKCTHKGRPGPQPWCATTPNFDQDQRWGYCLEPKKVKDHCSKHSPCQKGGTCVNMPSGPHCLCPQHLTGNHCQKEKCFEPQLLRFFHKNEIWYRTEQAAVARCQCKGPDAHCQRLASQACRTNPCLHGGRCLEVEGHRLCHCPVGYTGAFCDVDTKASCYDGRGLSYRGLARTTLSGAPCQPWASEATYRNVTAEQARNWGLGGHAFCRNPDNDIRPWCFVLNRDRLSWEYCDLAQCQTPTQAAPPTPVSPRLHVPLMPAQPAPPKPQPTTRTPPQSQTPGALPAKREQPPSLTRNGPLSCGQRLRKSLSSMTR
How it was run: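 Buffer was 0.5× HBSS with 25 mM HEPES pH 7.4 and 0.5× TBS-Tween 0.05%. Enzyme and compound (about 1–100 μM) were preincubated 10 min at room temperature, then Pefachrome XIIa was added at 400 μM final. Substrate cleavage was followed as the rate of A405 change at 37 °C.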

Compound | IC50 (Human alpha-thrombin) | IC50 (Human FXIIa)
Cc1cc2c(n1S(C)(=O)=O)CCCC2C(=O)n1nc2c(c1N)CCCC2 (centres unmarked) [Example 90, (3-amino-4,5,6,7-tetrahydroindazol-2-yl)(2-methyl-1-(methylsulfonyl)-4,5,6,7-tetrahydro-1H-indol-4-yl)methanone] | 18 µM | 0.3 µM
Nc1c2c(nn1C(=O)C1CCNc3ccc(F)cc31)CCC(F)(F)C2 (single isomer, unassigned) [Example 173, (S*)-(3-amino-5,5-difluoro-4,5,6,7-tetrahydroindazol-2-yl)(6-fluoro-1,2,3,4-tetrahydroquinolin-4-yl)methanone] | 30 µM | 0.1 µM
CN1CCC(C(=O)n2nc3c(c2N)CCCC3)c2ccccc21 (single isomer, unassigned) [Example 73, (R*)-(3-amino-4,5,6,7-tetrahydroindazol-2-yl)(1-methyl-1,2,3,4-tetrahydroquinolin-4-yl)methanone] | > 50 µM | > 50 µM
CCc1cscc1C(=O)n1nc(N)c2c1CCCC2 (single isomer, unassigned) [Example 12, (3-amino-4,5,6,7-tetrahydroindazol-1-yl)(4-ethylthiophen-3-yl)methanone] | > 50 µM | > 50 µM
Nc1c2c(nn1C(=O)[C@H]1CCNc3c(Cl)cccc31)C[C@H](O)CC2 (single isomer, unassigned) [Example 209, ((6R*)-3-amino-6-hydroxy-4,5,6,7-tetrahydroindazol-2-yl)((4S*)-8-chloro-1,2,3,4-tetrahydroquinolin-4-yl)methanone] | > 100 µM | 0.04 µM
CCn1c(C)c(C(=O)n2nc3c(c2N)CCCC3)c2ccccc21 [Example 45, (3-amino-4,5,6,7-tetrahydroindazol-2-yl)(1-ethyl-2-methyl-1H-indol-3-yl)methanone] | > 100 µM | 12 µM
Cc1sc2ccccc2c1C(=O)n1nc(N)c2c1CCCC2 (single isomer, unassigned) [Example 24, (3-amino-4,5,6,7-tetrahydroindazol-1-yl)(2-methylbenzo[b]thiophen-3-yl)methanone] | > 100 µM | > 100 µM
Cc1cccc2c1NCC[C@H]2C(=O)n1nc2c(c1N)CC[C@H](O)C2 (single isomer, unassigned) [Example 197, ((6S*)-3-amino-6-hydroxy-4,5,6,7-tetrahydroindazol-2-yl)((4R*)-8-methyl-1,2,3,4-tetrahydroquinolin-4-yl)methanone] | > 150 µM | 1.5 µM
CO[C@H]1CCc2nn(C(=O)[C@H]3CCNc4ccc(F)cc43)c(N)c2C1 (single isomer, unassigned) [Example 177, ((5S*)-3-amino-5-methoxy-4,5,6,7-tetrahydroindazol-2-yl)((4S*)-6-fluoro-1,2,3,4-tetrahydroquinolin-4-yl)methanone] | > 100 µM | 2 µM

The next lines start with the values.

IC50 (Human alpha-thrombin) | IC50 (Human FXIIa) | Compound
20 µM | 0.01 µM | Nc1c2c(nn1C(=O)c1cccc3[nH]c(Br)cc13)CCCC2 (single isomer, unassigned) [Example 62, (3-amino-4,5,6,7-tetrahydroindazol-2-yl)(2-bromo-1H-indol-4-yl)methanone]
68 µM | 0.25 µM | COc1ccc(C(=O)n2nc3c(c2N)CCCC3)c2cc[nH]c12 [Example 80, (3-amino-4,5,6,7-tetrahydroindazol-2-yl)(7-methoxy-1H-indol-4-yl)methanone]
> 100 µM | 0.06 µM | Cc1cc2c(C(=O)n3nc4c(c3N)CC(O)CC4)cccc2[nH]1 (centres unmarked) [Example 161]
> 100 µM | 15 µM | CCc1ccccc1C(=O)n1nc2c(c1N)CCCC2 [Example 40, (3-amino-4,5,6,7-tetrahydroindazol-2-yl)(2-ethylphenyl)methanone]
25 µM | 0.1 µM | Nc1c2c(nn1C(=O)c1cccc3[nH]ccc13)CCCC2 (single isomer, unassigned) [Example 1, (3-Amino-4,5,6,7-tetrahydro-2H-indazol-2-yl)(1H-indol-4-yl)methanone]
25 µM | 0.7 µM | Cc1cc2c(C(=O)n3nc(N)c4c3CCC(F)(F)C4)cccc2[nH]1 [Example 122, (3-amino-5,5-difluoro-4,5,6,7-tetrahydro-2H-indazol-1-yl)(2-methyl-1H-indol-4-yl)methanone]
20 µM | 0.01 µM | Nc1c2c(nn1C(=O)c1cccc3[nH]c(Cl)cc13)CCCC2 (single isomer, unassigned) [Example 55, (3-amino-4,5,6,7-tetrahydroindazol-2-yl)(2-chloro-1H-indol-4-yl)methanone]
> 100 µM | 0.3 µM | Nc1c2c(nn1C(=O)C1CCNc3ccccc31)CCCC2 (single isomer, unassigned) [Example 76, (3-amino-4,5,6,7-tetrahydroindazol-2-yl)(1,2,3,4-tetrahydroquinolin-4-yl)methanone]
40 µM | 0.06 µM | Cc1cc2c(C(=O)n3nc4c(c3N)CCCC4)cccc2o1 (single isomer, unassigned) [Example 58, (3-amino-4,5,6,7-tetrahydroindazol-2-yl)(2-methylbenzofuran-4-yl)methanone]
40 µM | 0.01 µM | CCc1cc2c(C(=O)n3nc4c(c3N)CCCC4)cccc2n1CC (single isomer, unassigned) [Example 68, (3-amino-4,5,6,7-tetrahydroindazol-2-yl)(1,2-diethyl-1H-indol-4-yl)methanone]
9 µM | 0.02 µM | Cc1cc2c(C(=O)n3nc4c(c3N)CC(F)(F)CC4)cccc2[nH]1 [Example 121, (3-amino-5,5-difluoro-4,5,6,7-tetrahydro-2H-indazol-2-yl)(2-methyl-1H-indol-4-yl)methanone]
> 100 µM | 1.2 µM | Nc1c2c(nn1C(=O)c1coc3ccccc13)CCCC2 [Example 41, (3-amino-4,5,6,7-tetrahydroindazol-2-yl)(benzofuran-3-yl)methanone]
> 50 µM | 17 µM | Cc1[nH]c2ccccc2c1C(=O)n1nc(N)c2c1CCCC2 [Example 154]
